Columns and labels:
[1] = system: spontaneously hypertensive rats; assay: mean arterial blood pressure in spontaneously hypertensive rats after oral dosing; assay type: in vivo; settings: 50 mg/kg orally, compared to vehicle-treated controls, approximate
Method: Further, spontaneously hypertensive rats were treated with a suspension or solution of 3-mercapto-4-benzyl-5-n- heptyl-1,2,4-triazole at a dose of 50 mg/kg orally, and mean arterial blood pressure was monitored for 260 minutes using indwelling cannulae in the tail arteries. […] Maximal blood pressure reduction was approximately 10 to 35 mm Hg.

[2] = Teresawa et al., Japan Cir. J. 35, 339 (1971); cited from earlier work

Structure (SMILES) | time after treatment to significant blood pressure reductions [1] [min] | toxic effect [2]
CCCCCCCc1nnc(S)n1Cc1ccccc1 [Example 35, 3-Mercapto-4-benzyl-5-n-heptyl-1,2,4-triazole] | ≤ 30 | –
CCCCc1ccc(C(=O)O)nc1 [fusaric acid] | – | hepatotoxic

Reference: EP0323737A1, “4-Aralkyl-5-substituted-1,2,4-triazole-5-thiols” (SMITHKLINE BECKMAN CORPORATION, priority 1987, dated 1989)
